The values that follow are results of earlier work, collected in patent US8481483B2, “Cyclosporin analogues” (priority 2009, dated 2013).

Molecules are shown by their SMILES.

Series [1] has as its system hepatitis C virus replication. To be noted: Antiviral Research 65(3):A41 (2005).
For another series, the target named is cyclophilin A (Homo sapiens, UniProt P62937).
Sequence of cyclophilin A (P62937 whole entry, species assumed): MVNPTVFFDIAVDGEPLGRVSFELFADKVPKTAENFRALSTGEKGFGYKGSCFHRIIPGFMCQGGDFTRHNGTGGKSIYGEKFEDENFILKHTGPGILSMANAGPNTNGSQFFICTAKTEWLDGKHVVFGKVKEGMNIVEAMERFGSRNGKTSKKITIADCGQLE

Take `C/C=C/C[C@@H](C)[C@@H](O)[C@H]1C(=O)N[C@@H](CC)C(=O)N(C)[C@H](C)C(=O)N(CC)[C@@H](C(C)C)C(=O)N[C@@H](C(C)C)C(=O)N(C)[C@@H](CC(C)C)C(=O)N[C@@H](C)C(=O)N[C@H](C)C(=O)N(C)[C@@H](CC(C)C)C(=O)N(C)[C@@H](CC(C)C)C(=O)N(C)[C@@H](C(C)C)C(=O)N1C` [DEBIO-025]: in series [1], the “inhibition of hepatitis C virus replication” value is “potent and selective inhibition”. Further, the “binding affinity for cyclophilin A” value on cyclophilin A is listed as “potent binding affinity”.
